Values quoted from earlier work as cited in US20170112867A1, “PHARMACEUTICAL COMBINATIONS OF […] RIBAVIRIN” (SANOVEL ILAC SANAYI VE TICARET ANONIM SIRKETI, priority 2014, published 2017).

What was measured:
[1] = test system: Cytochromes P450 (CYP)
[2] = test system: chronic hepatitis C (CHC) infections; conditions: ribavirin alone, during or after therapy

| Compound | solubility (across the pH range of 2-7.7 at 37° C.) [µg/mL] | solubility in water | metabolism by Cytochromes P450 (CYP) [1] | solubility in anhydrous alcohol (anhydrous alcohol) | HCV RNA levels [2] |
| --- | --- | --- | --- | --- | --- |
| CC(C)OC(=O)[C@H](C)N[P@](=O)(OC[C@H]1O[C@@H](n2ccc(=O)[nH]c2=O)[C@](C)(F)[C@@H]1O)Oc1ccccc1 [Sofosbuvir, (S)-Isopropyl 2-((S)-(((2R,3R,4R,5R)-5-(2,4-dioxo3,4-dihydropyrimidin-1(2H)-yl)-4-fluoro-3-hydroxy-4-methyltetrahydrofuran-2yl)methoxy)-(phenoxy)phosphorylamino)propanoate] | ≥ 2000 | slightly soluble | not metabolized | – | – |
| 1-β-Dribofuranosyl-1H-1,2,4-triazole-3-carboxamide [Ribavirin] | – | freely soluble | – | slightly soluble | did not reduce HCV RNA levels |
